# Laboratory results: US20140303092A1 (CHIMERIX, INC., priority 2011, published 2014)
# Marks after values point to notes of the source that are not given here.
# Tests used:
# AdV = assay: In vitro antiviral activity in cell culture, AdV; assay type: cell-based; conditions: unidentified adenovirus
# [1] = parameters: species or system human; conditions: in vivo
# Text: Plasma samples were collected during the study to assess weekly trough concentrations of HDP-CDV and CDV. […] There was no evidence for increasing weekly trough CDV plasma concentrations; therefore, plasma concentrations are not presented in this document.
# [2] = Study HDP-CDV-201: GVHD reported as AE, weekly stage and grade, logistic regression versus dose; parameters: species or system human (HSCT recipients); conditions: human, in vivo
# Method: Because of the increased frequency of reports of acute GVHD in the BIW Cohorts of Study HDP-CDV-201, an in-depth analysis of reported GVHD was conducted. This analysis includes data from the following sources: Adverse events as reported in the eCRF, including GVHD and GI events; Weekly GVHD assessments (by stage, organ, and grade) as reported by the investigators on the GVHD module of the eCRF. […]
# For all subjects, the sites were instructed to record the presence or absence of GVHD, and stage and grade of GVHD, if present, at each visit on a separate eCRF page. […] Stage and grade of GVHD were evaluated per the NIH consensus guidelines (Przepiorka D, et al. Consensus conference on acute GVHD grading. Bone Marrow Transplant. 1995; 15(6): 825-828), which focus on the intensity of symptoms or laboratory abnormalities associated with GVHD (for example, the staging of GVHD of the intestine is based on the volume of diarrhea). […]
# HHV-6(B) = assay: In vitro antiviral activity in cell culture, HHV-6(B); assay type: cell-based, human herpesvirus 6; conditions: Human betaherpesvirus 6, B-cell
# [3] = parameters: species or system human (healthy subjects); conditions: human, in vivo
# Method: For this reason, in Study HDP-CDV-201, HDP-CDV was administered to fasted subjects. […] For this reason, in future studies, HDP-CDV may be administered with a food whenever possible.
# However, the clinical significance of these findings is currently unknown and anecdotal reports indicate that gastrointestinal symptoms during HDP-CDV therapy may be mitigated by administration of HDP-CDV with food. […] In Study HDP-CDV-301, HDP-CDV is dosed with food; there is no restriction on the amount or type of food eaten. Therefore, evidence of the effectiveness of HDP-CDV is established in Study […] in subjects who receive HDP-CDV in the fed state.
# [4] = cynomolgus monkey, in vivo
# [5] = in vivo
# VZV = assay: In vitro antiviral activity in cell culture, VZV; assay type: cell-based, varicella-zoster virus; conditions: Human alphaherpesvirus 3
# [6] = Study HDP-CDV-350: safety, adverse events and disposition; assay type: in vivo, human (allogeneic HCT recipients)
# Method: Subjects underwent extensive safety monitoring, including routine safety laboratory assessments, physical examination, and vital sign measurements at regular intervals. In addition, subjects were monitored for viral DNA burden in plasma (DNAemia) and other affected compartments (e.g., urine, stool, CSF, etc.). Assessments were performed weekly for the first month, every 1 or 2 weeks for the next 2 months, and monthly thereafter for as long as treatment was continued. Subjects were monitored for adverse events (AEs) and for selected concomitant medication throughout the entire study, including the 1 month posttreatment follow-up period.
# Given that subjects had to have a serious or life-threatening disease and/or to have failed other available treatment options in order to qualify for this study, there was an expected high frequency of AEs in the study population overall. With the exception of diarrhea, with or without associated GI signs and symptoms, the vast majority of AEs were attributed to the underlying conditions of the subjects and not to HDP-CDV administration.
# [7] = 16 subjects, 100 mg BIW adults or 2 mg/kg BIW pediatrics
smiles,measurement,setting,value
CCCCCCCCCCCCCCCCOCCCOP(=O)(O)COC(CO)Cn1ccc(N)nc1=O (stereo not drawn) [HDP-CDV],EC50,AdV,20 nM
same,weekly trough HDP-CDV concentrations,[1],near or below the lower limit of quantification
same,overall frequency of GVHD,[2],44 to 59%
same,EC50,HHV-6(B),7 nM
same,reduction of peak plasma concentration (Cmax),[3],48%
same,reduction of systemic exposure (AUCinf),[3],28%
same,"systemic exposure, tablet lower than oral solution",[3]; po,about 13%
same,ALT change,[4],dose-related increases in ALT which were quickly reversible after cessation of dosing
same,Minor increases in ALT,[5],2-5 fold
same,EC50,VZV,0.4 nM
same,Reason for Premature Study Discontinuation: Death,[6]; [7],7 (44%)
same,Reasons for Premature HDP-CDV Treatment Discontinuation: Death,[6]; [7],4 (25%)
same,Reasons for Premature HDP-CDV Treatment Discontinuation: Other,"[6]; 16 subjects, both completed the maximum 6 months treatment without resolution of CMV infection",2 (13%)^i
same,Treatment-related Adverse Events: Colitis,"[6]; human, in vivo",1 (6%) No. of Subjects (%)
same,Treatment-related Adverse Events: Decreased appetite,"[6]; human, in vivo",1 (6%) No. of Subjects (%)
same,Treatment-related Adverse Events: Diarrhea,"[6]; human, in vivo",12 (75%) No. of Subjects (%)
same,Treatment-related Adverse Events: Flatulence,"[6]; human, in vivo",1 (6%) No. of Subjects (%)
same,Treatment-related Adverse Events: Liver function tests abnormal,"[6]; human, in vivo",3 (19%) No. of Subjects (%)
same,Treatment-related Adverse Events: Nausea,"[6]; human, in vivo",2 (13%) No. of Subjects (%)
same,Treatment-related Adverse Events: Neutropenia,"[6]; human, in vivo",1 (6%) No. of Subjects (%)
same,tolerability,[6]; in vivo,generally well-tolerated
